Experimental data: PMC9233675, “Ru(II) photocages enable precise control over enzyme activity with red light” (Nature Communications, 2022)
Changes are numbered by the printed parent chain. “And” between values parts separate entries of the source, which are not always exact repeats. Identical values can stand only once. Like-named read-outs stand apart in the source and are kept apart here.

Key:
[1] = molecular target: T1, CYP19A1 (Homo sapiens, UniProt P11511); test: In cell activity assay for CYP19A1 (dibenzylfluorescein conversion, HEK293 T-Rex cells); format: cell-based; conditions: for SI (1B1:19A1): ratio of IC50 CYP19A1 to CYP1B1, for complexes 4–6 IC50 (light); for % Enzyme Activity: CYP19A1, dark
T1 sequence (P11511 1-503): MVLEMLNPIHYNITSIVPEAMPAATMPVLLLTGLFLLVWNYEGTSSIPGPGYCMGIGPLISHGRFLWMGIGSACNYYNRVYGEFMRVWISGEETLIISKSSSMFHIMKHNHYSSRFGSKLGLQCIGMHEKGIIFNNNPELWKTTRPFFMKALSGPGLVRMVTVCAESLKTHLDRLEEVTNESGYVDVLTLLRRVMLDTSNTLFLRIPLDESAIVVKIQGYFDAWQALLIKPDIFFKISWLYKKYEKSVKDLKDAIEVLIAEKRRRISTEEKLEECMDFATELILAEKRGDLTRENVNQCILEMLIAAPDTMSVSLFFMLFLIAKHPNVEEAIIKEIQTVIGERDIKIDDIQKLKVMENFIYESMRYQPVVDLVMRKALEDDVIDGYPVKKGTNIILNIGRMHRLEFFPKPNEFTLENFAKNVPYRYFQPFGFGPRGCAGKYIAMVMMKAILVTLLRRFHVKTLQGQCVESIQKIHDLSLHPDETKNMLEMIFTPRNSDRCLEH
Protocol: Thus, the activity against CYP19A1 was evaluated using a recently developed in-cell fluorometric assay.
REE or DBF was added as described above.

[2] = molecular target: T2, CYP1B1 S127A (Homo sapiens, UniProt Q16678, S127A); test: In cell CYP1B1 activity assay, S127A variant; conditions: for logSI S127A: log of the ratio of IC50 values mutant vs WT (Fig. 3c)
T2 sequence (Q16678 1-543 S127A): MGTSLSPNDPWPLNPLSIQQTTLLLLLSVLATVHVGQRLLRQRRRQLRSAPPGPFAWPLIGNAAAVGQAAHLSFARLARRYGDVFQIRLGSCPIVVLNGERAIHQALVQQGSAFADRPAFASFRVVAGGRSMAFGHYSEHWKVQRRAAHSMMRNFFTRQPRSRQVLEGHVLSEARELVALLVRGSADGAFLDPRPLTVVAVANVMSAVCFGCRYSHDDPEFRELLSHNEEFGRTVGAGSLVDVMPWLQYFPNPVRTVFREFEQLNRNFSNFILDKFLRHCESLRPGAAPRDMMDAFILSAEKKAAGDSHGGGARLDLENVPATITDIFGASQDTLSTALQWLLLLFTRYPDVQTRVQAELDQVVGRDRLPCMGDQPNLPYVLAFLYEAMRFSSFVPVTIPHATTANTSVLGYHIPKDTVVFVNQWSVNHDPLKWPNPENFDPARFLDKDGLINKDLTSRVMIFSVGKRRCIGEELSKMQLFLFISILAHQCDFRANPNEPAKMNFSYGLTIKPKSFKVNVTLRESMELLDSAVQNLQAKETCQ
From the text: (§1) Site directed mutagenesis was used to probe the importance of specific active-site contacts identified through the structural assessment (Fig. 3a, b) and simulations. In all cases, conservative mutations were made to maintain polar or hydrophobic character and approximate size. The aromatic residues that frame the inhibitor binding site, Phe143 and Phe231, were mutated to Leu to determine the importance of the π interactions. In addition, the Ser127 residue, located in the upper corner of the active site on the B-C loop, was chosen for mutation based on the simulations. This amino acid transiently contacts the inhibitors, but also forms a hydrogen bond with Asp326 of the I-helix, and thus may impact the position of this helix with regards to the B-C loop. […] Rather than directly mutating these residues in the I-helix, neighboring residues Gln332 and Asp333 were targeted, with the hope of interrupting amino acid interactions that position the helix within the active site.
(§2) The ratio of IC50 values for the WT vs. the mutant are shown in Fig. 3c and reflects the importance of the specific contact; the log of the value is used to aid in visualization.
(§3) Cell lines were seeded onto Geltrex coated 96-well plates at 40,000 cells/well, and grown overnight in DMEM media containing 1 μg/mL tetracycline. The media was then replaced with Opti-MEM supplemented with 2% FBS and 1 μg/mL tetracycline. Compounds were serially diluted in Opti-MEM supplemented with 2% FBS and 1 μg/mL tetracycline and an equal volume of compound added to the cells (n = 3). Following a 1 h incubation, resorufin ethyl ether (REE; for CYP1B1 and 1A1) or dibenzylfluorescein (DBF; for 19A1) was added to the cells for a total concentration of 5 μM for REE and 1 μM for DBF. […] Dose–response curves were generated in Prism and normalized using the no-compound control (set as 100% activity) and the no-cell control (set as 0% activity; this value in the raw data reflects the background fluorescence of the dye alone).

[3] = molecular target: T3, CYP1B1 S269A (Homo sapiens, UniProt Q16678, S269A); test: In cell CYP1B1 activity assay, S269A variant; conditions: for logSI S269A: log of the ratio of IC50 values mutant vs WT (Fig. 3c)
T3 sequence (Q16678 1-543 S269A): T2 sequence (Q16678 1-543 S127A) with A127S, S269A
From the text: as §1, §2, §3

[4] = Irradiation-induced 1O2 production (Singlet Oxygen Sensor Green assay); format: physicochemical; conditions: sheet S27; triplicate columns; DMSO control about 0.9
From the text: Some Ru(II) complexes can generate singlet oxygen when photoexcited, a feature that has been applied to the selective photoinactivation of proteins. In this approach, the Ru(II) system is conjugated to a peptide that is a specific ligand for the protein target; binding of the peptide to the protein ensures close proximity of the Ru(II) center and thus, upon photoexcitation, the generation of a high local concentration of singlet oxygen. […] As very little of this reactive oxygen species was generated, inactivation of the CYP enzymes by this process appears unlikely.
Supplementary Figure 27. Determination of irradiation-induced 1O2 production with 660 nm light (1 hr = 58.7 J/cm2)
using the Singlet Oxygen Sensor Green assay. […]

[5] = Dark, conversion of dibenzylfluorescein (DBF), read-out: IC50 CYP19A1 Dark
[6] = Light: 660 nm, 58.7 J/cm^2, DBF, read-out: IC50 CYP19A1 Light

logSI S127A [2]	logSI S269A [3]	SMILES	IC50 [1, 5] [µM]	IC50 [1, 6] [µM]	SI (1B1:19A1) [1]	irradiation-induced 1O2 production (Singlet Oxygen Sensor Green signal, relative) [4]	other results
-1.5	0.3	COc1cc(/C=C/c2ccc(OC)cc2OC)cc(OC)c1 [Compound 1, reference compound]	> 30	–	–	–	–
1.7	0	COc1ccc(/C=C/c2ccncn2)c(OC)c1 [Compound 2]	10.7	–	–	–	IC50 [2]: 3.74 µM; Ratio IC50 (mutant)/ IC50 (WT), S127A [2]: 50; IC50 [3]: 0.073 µM; Ratio IC50 (mutant)/ IC50 (WT), S269A [3]: 1
–	–	COc1ccc(/C=C/c2cc[n+]([Ru-4]345([n+]6ccccc6-c6cccc([n+]63)-c3cccc[n+]34)[n+]3c(cc(C(=O)[O-])c4ccccc43)-c3cc(C(=O)[O-])c4ccccc4[n+]35)cn2)c(OC)c1 [Compound 5]	28.3	11.2	660	1.081 and 0.9897 and 0.9798	impact on CYP19A1 ([1]; at concentrations ≥10 μM (so in the source)): no impact
–	–	COc1ccc(/C=C/c2cc[n+]([Ru-4]345([n+]6ccccc6-c6cccc([n+]63)-c3cccc[n+]34)[n+]3c(cc(C(=O)[O-])c4ccccc43)-c3cc(C(=O)[O-])c4ccccc4[n+]35)cc2)c(OC)c1 [Compound 6]	> 30	18.8	62,800	0.9896 and 0.937 and 1.032	% Enzyme Activity ([1]; Log Conc 0.045757): 105.406% and 101.538% and 104.022%; % Enzyme Activity ([1]; Log Conc 0.522879): 104.302% and 98.6869% and 100.038%; % Enzyme Activity ([1]; Log Conc 1): 98.3957% and 97.4287% and 99.555%; % Enzyme Activity ([1]; Log Conc 1.47712): 84.792% and 87.3743% and 76.9903%; % Enzyme Activity ([1]; Log Conc -0.43136): 108.571% and 102.071% and 105.115%; % Enzyme Activity ([1]; Log Conc -0.90849): 106.835% and 107.302% and 104.318%; % Enzyme Activity ([1]; Log Conc -1.38561): 104.082% and 105.269% and 104.335%; % Enzyme Activity ([1]; Log Conc -1.86273): 107.692% and 92.0059% and 100.302%

SMILES	logSI S127A [2]	logSI S269A [3]	IC50 [1, 5] [µM]	IC50 [1, 6] [µM]	SI (1B1:19A1) [1]	irradiation-induced 1O2 production (Singlet Oxygen Sensor Green signal, relative) [4]	other results
COc1ccc(C=Cc2ccncc2)c(OC)c1 [Compound 3]	2.2	0.8	14.4	–	–	–	–
